Columns and labels:
[1] = system: U87MG transplanted tumor; assay: U87MG transplanted tumor growth in nude mice; parameters: species or system BALB/c nude mice; settings: U87MG xenograft, day 13; saRNA (in vivo-jetPEI) 1 mg/kg intratumor days 1, 4, 7, 10; regorafenib 3 mg/kg intragastric daily day 1-12; control 406%
Method: To prepare the saRNA formulation, in vivo-jetPEI (201-10G, Polyplus-transfection, France) was adopted as an saRNA delivery system. The preparation process is briefly described as follows: an saRNA was first diluted in a 10% glucose solution to give a solution A; a required amount of in vivo-jetPEI was diluted in 10% glucose solution to give a solution B; then, equal volumes of the solution A and the solution B were mixed (nitrogen-to-phosphorus ratio: 8; final concentration of glucose: 5%). After mixing the mixture was let to stand under room temperature for 15 minutes for later use.
The glioma cell line U87MG were grown to the logarithmic phase, counted, then subcutaneously inoculated at a concentration of 9×10^7 cells/mL into the right armpit of BALB/c nude mice at 0.1 mL per mouse. […] After the initial administration, the long diameter and short diameter of each tumor were measured with a vernier caliper every two days. The tumor volume was calculated according to the formula V=(l×w^2)/2, wherein 1 represents the longest diameter of the tumor and w represents the diameter parallel to the surface of the tumor and perpendicular to the long diameter. A tumor growth curve and size and morphology of the tumor anatomy were recorded during the administration.

[2] = system: HepG2 transplanted tumor; assay: HepG2 transplanted tumor growth in nude mice; parameters: species or system BALB/c nude mice; settings: HepG2 xenograft, day 13; saRNA (in vivo-jetPEI) 1 mg/kg intratumor days 1, 4, 7, 10; regorafenib 3 mg/kg intragastric daily day 1-12; vehicle 118%
Method: To prepare the saRNA formulation, the in vivo-jetPEI (201-10G, Polyplus-transfection, France) was adopted as an saRNA delivery system. The preparation process is briefly described as follows. An saRNA was first diluted in 10% glucose solution to obtain a solution A. According to the instructions of the manufacturer, a required amount of in vivo-jetPEI was diluted in 10% glucose solution to obtain a solution B. Equal volumes of the solution A and the solution B were mixed (nitrogen-to-phosphorus ratio: 8; final concentration of glucose: 5%). After mixing, the mixture was let to stand at room temperature for 15 minutes for later use.
HepG2 cells in the logarithmic growth phase were obtained and counted, and then the cell suspension was regulated to 5×10^7 cells/mL and subcutaneously inoculated into the right armpit of BALB/c nude mice at a volume of 0.1 mL per mouse. […] Starting from the initial administration, the long diameter and the short diameter of each tumor were measured with a vernier caliper every two days. The tumor volume was calculated according to the formula V=(l×w^2)/2, wherein 1 represents the longest diameter of the tumor and w represents the diameter parallel to the surface of the tumor and perpendicular to the long diameter. A tumor growth curve and size and morphology of the tumor after anatomy were recorded during the administration.

Question: What does the source list for `CNC(=O)c1cc(Oc2ccc(NC(=O)Nc3ccc(Cl)c(C(F)(F)F)c3)c(F)c2)ccn1` [regorafenib, Regorafenib, reference compound]?
Answer: tumor volume increase compared with that at the beginning of treatment [1]: 251%; tumor volume increase compared with that at the beginning of treatment [2]: 70%

Reference: patent US20220096516A1, “OLIGONUCLEOTIDE MOLECULE AND APPLICATION THEREOF IN TUMOR THERAPY” (Ractigen Therapeutics, priority 2019, published 2022)
